Experiments:
E. coli nitroreductase = E. coli nitroreductase (Escherichia coli, UniProt P38489); settings: with respect to CB 1954; NADH as co-substrate; cited from earlier work
Rat DT-diaphorase = target: T1, Rat DT-diaphorase (Rattus norvegicus, UniProt P05982); settings: with respect to CB 1954; NADH as co-substrate; cited from earlier work
T1 sequence (P05982 2-274 limits assumed): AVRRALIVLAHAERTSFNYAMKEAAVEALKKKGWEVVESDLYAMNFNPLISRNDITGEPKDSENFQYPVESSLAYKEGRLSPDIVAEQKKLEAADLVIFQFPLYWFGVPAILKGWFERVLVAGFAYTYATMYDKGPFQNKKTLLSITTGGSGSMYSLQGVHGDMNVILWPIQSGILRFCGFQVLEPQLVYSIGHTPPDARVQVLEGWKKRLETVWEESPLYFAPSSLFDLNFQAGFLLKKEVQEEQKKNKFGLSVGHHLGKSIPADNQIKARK

[1] = tested on: human T98G gliobastoma cells; test: Cytotoxicity of CB 1954 on T98G glioblastoma cells with NQO2 co-substrates; settings: no co-substrate
Procedure: Cells in exponential phase of growth were trypsinised, seeded in 96 well plates at a density of 5×10^4 cells per well (100 μl) and permitted to recover for 24 hours. Then 50 μl of medium was removed and replaced with 50 μl of fresh medium containing 200 μM NRH to give a final concentration of 100 μM. Serial dilutions of CB 1954 (8 of 3.66×) were performed in situ giving final concentrations of 1000–0.46 μM. Cells were then incubated with drug for 72 hours at 37° C. The plates were fixed and stained with sulforhodamine-B; the absorption at 590 nm read and results were expressed as percentage of control growth. The IC50 values were evaluated by interpolation.
The cells were treated as for V79 cells but were treated for 144 hr in presence of CB 1954.

Human DT-diaphorase = Human DT-diaphorase (Homo sapiens, UniProt P15559); settings: with respect to CB 1954; NADH as co-substrate; cited from earlier work
Chain of Human DT-diaphorase (P15559 whole entry): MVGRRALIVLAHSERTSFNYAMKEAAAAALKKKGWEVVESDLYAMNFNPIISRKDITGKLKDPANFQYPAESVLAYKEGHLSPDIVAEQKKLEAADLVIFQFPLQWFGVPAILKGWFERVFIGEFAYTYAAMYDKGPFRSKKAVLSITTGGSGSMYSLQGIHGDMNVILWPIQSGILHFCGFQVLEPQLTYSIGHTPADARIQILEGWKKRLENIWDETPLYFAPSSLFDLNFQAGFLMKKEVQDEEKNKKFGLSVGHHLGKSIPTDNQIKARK

[2] = tested on: non-transfected V79 cells; test: Cytotoxicity of CB 1954 with NRH in non-transfected V79 cells; type: cell-based, Chinese hamster; settings: 100 μM NRH added, 72 hours
[3] = tested on: NQO2 expressing V79 cells; test: Cytotoxicity of CB 1954 with NRH in NQO2-transfected V79 cells; type: cell-based, Chinese hamster; settings: 100 μM NRH added, 72 hours
Procedure: Transfection quality H6 DNA was prepared using the QIAGEN endotoxin-free maxiprep kit. Chinese hamster lung embryo fibroblasts (V79) were transfected with the purified H6 using DOTAP liposomal reagent according to the manufacturer's instructions (Boehringer Mannheim). Two days after transfection puromycin-resistant clones were selected in DMEM/10% FCS containing 10 μg/ml puromycin (Sigma) and grown on to establish cell lines designated V79TM1, 5, 3, 7, 9, 11 and 13 respectively and maintained in selective medium.

NQO2 = target: T2, NQO2 (Homo sapiens, UniProt P16083); test: Co-substrate activity with NQO2 for reduction of CB 1954 (HPLC); type: biochemical; parameters: restriction site were added to the 5′ and 3′-ends of the full-length NQO2 cDNA; made in house; host or cells: E. coli (expression vector pKK233-2, plasmid pKK-hNQO2)
T2 sequence (P16083 1-231): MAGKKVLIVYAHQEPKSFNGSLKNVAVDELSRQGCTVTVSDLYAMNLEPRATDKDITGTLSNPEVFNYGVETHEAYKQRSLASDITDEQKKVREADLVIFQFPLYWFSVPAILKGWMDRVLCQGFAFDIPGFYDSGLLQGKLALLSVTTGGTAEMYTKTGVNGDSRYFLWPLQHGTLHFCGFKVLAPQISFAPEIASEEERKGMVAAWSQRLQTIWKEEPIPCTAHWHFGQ
Procedure: The effect of various co-substrates on CB 1954 was determined as above but NADH. NADPH or NMNH was substituted for the NRH and CB 1954 was used at a fixed concentration of 100 μM. The enzyme concentration was 5 μg/ml. The reduction of CB 1954 was monitored by measuring both the decrease in its corresponding peak area on the HPLC trace and the increase in the area of the peak corresponding to the reduction product 5-(aziridin-1-yl)-4-hydroxylamino-2-nitrobenzamide. The relative rates of reduction were determined at 10% reduction of CB1954 from a graph plotting CB 1954 reduction against time. The time axis was normalised to the equivalent of 10 μg/ml of NQO2.
The activity of various potential co-substrates was determined by HPLC analysis in the presence of CB1954 and NQO2. To determine the kinetic parameters NQO2 (1 μg/ml) was incubated with NRH (5000 μM) and CB1954 at different concentrations (0.1 to 2 mM) in sodium phosphate buffer (10MM, pH 7) at 37° C. At various times, aliquots (10 μl) were injected onto a Partisphere SCX (250×4.5 mm) HPLC column (Whatman Ltd) and eluted isocratically (1.5 ml/min) with 50 mM aqueous sodium phosphate containing 1% methanol. The eluate was continuously monitored for absorption at 320 nm. […] The reduction of CB1954 was monitored by quantifying the increase in the area of the peak corresponding to the reduction product 5-(aziridin-1-yl)-4-hydroxylamino-2-nitrobenzamide. All the assays were initiated by addition of the enzyme and performed in duplicate. The kinetic parameters were calculated by plotting the initial rate of reduction at each concentration of CB1954 against that concentration and fitting the data to the Michaelis-Menton equation using a computer programme (Fig P). Values were confirmed by transforming the data and fitting it to various linear forms of the equation by regression analysis.
The effect of various co-substrates on CB1954 reduction was determined as above but the co-substrate was substituted for the NRH and C1954 was used at a fixed concentration of 100 μM. The enzyme concentration was 1 or 5 μg/ml. The reduction of CB1954 was monitored by measuring both the decrease in its corresponding peak area on the HPLC trace and the increase in the area of the peak corresponding to the reduction product 5-(aziridin-1-yl)-4-hydroxylamino-2-nitrobenzamide. The relative rates of reduction were determined at 10% reduction of CB1954 from a graph plotting CB1954 reduction against time. The time axis was normalised to the equivalent of 10 μg/ml of NQO2. The kinetic parameters of NQO2 for the various co-substrates was determined as for CB1954 except that the initial concentration of CB1954 was constant at 100 μm whilst that of the co-substrate was varied from 0 to 2 mM. The enzyme concentration was 0.5 μg/ml.

Chain of E. coli nitroreductase (P38489 whole entry): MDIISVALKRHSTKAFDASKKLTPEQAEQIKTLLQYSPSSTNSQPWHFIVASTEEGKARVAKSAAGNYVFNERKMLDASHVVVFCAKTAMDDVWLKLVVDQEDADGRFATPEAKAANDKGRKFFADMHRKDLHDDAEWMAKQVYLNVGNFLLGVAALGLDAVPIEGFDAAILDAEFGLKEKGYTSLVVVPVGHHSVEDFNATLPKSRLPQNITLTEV

SMILES	kcat (E. coli nitroreductase) [s⁻¹]	Km (Rat DT-diaphorase) [µM]	kcat (Rat DT-diaphorase) [s⁻¹]	toxicity of CB1954 alone [1]	Km (Human DT-diaphorase) [µM]	kcat (Human DT-diaphorase) [s⁻¹]	increase of the cytotoxicity of CB 1954 [2] [fold]	increase of the cytotoxicity of CB 1954 ([3]; V79TM5 and 13 cell lines)	increase of the cytotoxicity of CB 1954 ([3]; V79TM13 cells)	RELATIVE RATE OF REDUCTION (NQO2; CB 1954 reduction by NQO2, co-substrate initial 500 μM, CB 1954 initial 100 μM)	Km (NQO2; of NQO2 for the co-substrate, CB1954 as electron acceptor (100 μM)) [µM]	kcat (NQO2; of NQO2 with the co-substrate, CB1954 as electron acceptor) [s⁻¹]
NC(=O)c1cc(N2CC2)c([N+](=O)[O-])cc1[N+](=O)[O-] [CB 1954, 5-(aziridin-1-yl)-2,4-dinitrobenzamide]	6.0	826	0.0683	not toxic	1400	0.0107						
NC(=O)C1=CN([C@@H]2O[C@H](CO)[C@@H](O)[C@H]2O)C=CC1 [NRH, dihydronicotinamide riboside]							< 3	greater than 100 fold	at least 100 fold	70.0	28 ± 2	6
